Values of other authors, collected in article PMC9669016, “First-in-human phase Ia study of the PI3Kα inhibitor CYH33 in patients with solid tumors” (Nature Communications, 2022).
≈ marks a conversion by molar mass, not a printed value. Like-named read-outs stand apart in the source and are kept apart here.

Tests used:
PI3Kα and its mutants = tested on: PI3Kα and its mutants; design: method as in PMID 33109399; details: read-out: IC50 range; cited from earlier work
[1] = design: method as in Study Protocol CYH33-101 Table 2; details: ref Study Protocol CYH33-101 Table 2, cited from earlier work
[2] = tested on: more than 300 other kinases, including PIKK family; design: method as in Investigator's Brochure (IB) 12; details: ref Investigator's Brochure (IB) 12; cited from earlier work
[3] = tested on: KYSE410 human esophageal cancer xenograft; design: method as in Investigator's Brochure (IB) 12; details: ref Investigator's Brochure (IB) 12, cited from earlier work; for inhibition rate (tumor growth): multiple doses
[4] = tested on: EC104 esophageal cancer PDX; design: method as in Investigator's Brochure (IB) 12; details: 12.5 mg/kg oral for 21 days; ref Investigator's Brochure (IB) 12; cited from earlier work
[5] = tested on: KYSE410, KYSE510, EC104, EC063, EC074 xenograft models; design: method as in Investigator's Brochure (IB) 12; details: ref Investigator's Brochure (IB) 12, cited from earlier work
[6] = design: method as in Investigator's Brochure (IB) 12; details: human, without concentration dependency; ref Investigator's Brochure (IB) 12; cited from earlier work
CYP2C19 = tested on: CYP2C19; design: method as in Investigator's Brochure (IB) 12; details: up to 100 µM; ref Investigator's Brochure (IB) 12; cited from earlier work
CYP3A4 = tested on: CYP3A4; design: method as in Investigator's Brochure (IB) 12; details: up to 100 µM; ref Investigator's Brochure (IB) 12; cited from earlier work
human hepatocytes = tested on: human hepatocytes; design: method as in Investigator's Brochure (IB) 12; details: ref Investigator's Brochure (IB) 12; cited from earlier work
Caco-2 cells = tested on: Caco-2 cells; design: method as in Investigator's Brochure (IB) 12; details: 2.00 - 10.0 µM; efflux transporters may be involved; ref Investigator's Brochure (IB) 12; cited from earlier work
SD rats [7] = tested on: SD rats; design: method as in Investigator's Brochure (IB) 12; details: ref Investigator's Brochure (IB) 12; cited from earlier work
Beagle dogs = tested on: Beagle dogs; design: method as in Investigator's Brochure (IB) 12; details: ref Investigator's Brochure (IB) 12; cited from earlier work
SD rats [8] = tested on: SD rats; design: method as in Investigator's Brochure (IB) 12; details: long-term, ref Investigator's Brochure (IB) 12, cited from earlier work
mice bone marrow = tested on: mice bone marrow; design: method as in Investigator's Brochure (IB) 12; details: ref Investigator's Brochure (IB) 12; cited from earlier work
salmonella typhimurium = details: cited from earlier work

COC(=O)Nc1cc(C(F)(F)F)c(-c2nc(N3CCOCC3)c3cc(CN4CCN(S(C)(=O)=O)CC4)cn3n2)cn1 [CYH33, methyl (5-(6-((4-(methylsulfonyl)piperazin-1-yl)methyl)−4-morpholinopyrrolo[2,1-f][1,2,4]triazin-2-yl)−4-(trifluoromethyl)pyridin-2-yl)carbamate]
IC50 (PI3Kα and its mutants): 5 to 20 nM
Solubility ([1]; in H2O): 1210 µg/mL (≈ 2020 µM)
Solubility, pH dependent ([1]; pH <3): High solubility at pH <3
effects on more than 300 other kinases, including other PIKK family members [2]: slight
T/C ratio ([3]; 12.5 mg/kg oral for 21 days): approximately 30%
inhibition rate (tumor growth) ([3]; 12.5 mg/kg): > 67%
inhibition rate (tumor growth) ([3]; 25 mg/kg): > 90%
inhibition rate (tumor growth) ([3]; 50 mg/kg): > 95%
T/C ratio [4]: approximately 30%
T/C% ([5]; 50 mg/kg dose group, subcutaneous xenograft tumor model): < 20%
effective dose in nude mice ([5]; oral for 21 days): 12.5 mg/kg
plasma protein binding (PPB) [6]: 94.9%
inhibition of CYP2C19 (CYP2C19): did not inhibit
inhibition of CYP3A4 (CYP3A4): did not inhibit
oxidative metabolites in human hepatocytes (human hepatocytes): not detected
permeability (Caco-2 cells): moderately permeable
MTD, acute toxicity (SD rats [7]): ≥ 600 mg/kg
maximum tolerated dose (MTD), acute toxicity (Beagle dogs): > 120 mg/kg
highest non-severely toxic dose (HNSTD) (SD rats [8]; female SD rats): 3 mg/kg
highest non-severely toxic dose (HNSTD) (SD rats [8]; male SD rats): 8 mg/kg
mice bone marrow micronucleus test result (mice bone marrow): negative
reverse mutation assay (Ames test) result (salmonella typhimurium): negative
